Reference: patent publication US20150105252A1, “SUBSTITUTED PYRAZOLES AS HERBICIDES” (E I DU PONT DE NEMOURS AND COMPANY, priority 2013, published 2015)

Columns and labels:
wheat = test: Test A postemergence; format: in vivo, Triticum aestivum; conditions: Postemergence
In short: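 Injury readout: eye-scored versus untreated controls, 0 to 100. Exposure period: ~10 days, greenhouse. Application: soil-directed spray over sown seed (pre) or spray on seedlings 2–10 cm tall with one or two leaves (post), compound carried in non-phytotoxic solvent including surfactant.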

barnyardgrass = test: Test B flood; format: in vivo, Echinochloa crus-galli; conditions: 250 g ai/ha, visual rating on 0 to 100 scale (0 no effect, 100 complete control), 13 to 15 days
In short: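 Visual ratings (0 = no effect, 100 = complete control) versus untreated controls were taken 13–15 days after treatment of greenhouse plants. Treatment was added to paddy water held at 3 cm depth on 2-leaf-stage seedlings.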

crabgrass, large = test: Test C preemergence; format: in vivo, Digitaria sanguinalis; conditions: preemergence; for Plant response rating, Crabgrass, Large: 125 g ai/ha, scale 0 to 100, 0 = no effect, 100 = complete control
In short: (§1)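 Pre- and postemergence greenhouse screen; vehicle was a non-phytotoxic solvent mix with surfactant. Preemergence: treatment applied right after sowing into loam and sand. Postemergence: treated at 1–4 leaves. Visual rating at 13–15 days, 100 = complete control.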

foxtail, giant = test: Test C preemergence; format: in vivo, Setaria faberii; conditions: preemergence; for Plant response rating, Foxtail, Giant: 125 g ai/ha, scale 0 to 100, 0 = no effect, 100 = complete control
In short: as §1

lambsquarters = test: Test C preemergence; format: in vivo, Chenopodium album; conditions: preemergence; for Plant response rating, Lambsquarters: 125 g ai/ha, scale 0 to 100, 0 = no effect, 100 = complete control
In short: as §1

morningglory [1] = test: Test C preemergence; format: in vivo, Ipomoea coccinea; conditions: preemergence; for Plant response rating, Morningglory: 125 g ai/ha, scale 0 to 100, 0 = no effect, 100 = complete control
In short: as §1

pigweed = test: Test C preemergence; format: in vivo, Amaranthus retroflexus; conditions: preemergence; for Plant response rating, Pigweed: 125 g ai/ha, scale 0 to 100, 0 = no effect, 100 = complete control
In short: as §1

waterhemp [2] = test: Test C preemergence; format: in vivo, Amaranthus rudis; conditions: preemergence; for Plant response rating, Waterhemp: 125 g ai/ha, scale 0 to 100, 0 = no effect, 100 = complete control
In short: as §1

velvetleaf = test: Test C preemergence; format: in vivo, Abutilon theophrasti; conditions: preemergence; for Plant response rating, Velvetleaf: 125 g ai/ha, scale 0 to 100, 0 = no effect, 100 = complete control
In short: as §1

morningglory [3] = test: Test C postemergence; format: in vivo, Ipomoea coccinea; conditions: for Plant response rating (scale of 0 to 100 where 0 is no effect and 100 is complete control), Morningglory: Postemergence, 31 g ai/ha, visually evaluated after 13 to 15 days; for Morningglory plant response rating / Plant response rating, Morningglory: postemergence; for Morningglory plant response rating: 62 g ai/ha, scale 0 to 100
In short: as §1

nutsedge, yellow = test: Test C postemergence; format: in vivo, Cyperus esculentus; conditions: for Plant response rating (scale of 0 to 100 where 0 is no effect and 100 is complete control), Nutsedge, Yellow: Postemergence, 31 g ai/ha, visually evaluated after 13 to 15 days; for Nutsedge, Yellow plant response rating / Plant response rating, Nutsedge, Yellow: postemergence; for Nutsedge, Yellow plant response rating: 62 g ai/ha, scale 0 to 100
In short: as §1

oilseed rape = test: Test C postemergence; format: in vivo, Brassica napus; conditions: postemergence; for Oilseed Rape plant response rating: 62 g ai/ha, scale 0 to 100
In short: as §1

waterhemp [4] = test: Test C postemergence; format: in vivo, Amaranthus rudis; conditions: postemergence, 250 g ai/ha; scale 0 to 100 (0 no effect, 100 complete control)
In short: as §1

[5] = 125 g ai/ha, 0 to 100 scale, 0 no effect, 100 complete control
[6] = 500 g ai/ha, 0 to 100 scale (0 no effect, 100 complete control)
[7] = 31 g ai/ha, visual rating, scale 0 to 100 (0 no effect, 100 complete control), 13 to 15 days
[8] = 62 g ai/ha, scale 0 to 100 (0 no effect, 100 complete control), 13 to 15 days
[9] = 250 g ai/ha, scale 0 to 100, 0 is no effect, 100 is complete control
[10] = 250 g ai/ha, scale 0 to 100 (0 no effect, 100 complete control)
[11] = 125 g ai/ha, scale 0 to 100, 0 no effect, 100 complete control

For `CCc1cc(C(=O)NCC2CC2)nn1Cc1ccnc(C(F)(F)F)c1` [Compound 199], which “Wheat plant response rating” value (wheat; [5]) is on record?
The value was 70.

What about the “Wheat plant response rating” value (wheat; [6]) of the same compound?
Its value is 80.

And the “Plant response rating, Barnyardgrass” value (barnyardgrass)?
The value was 55.

And the “Crabgrass, Large plant response rating” value (crabgrass, large; [7])?
Its value is 98.

And the “Crabgrass, Large plant response rating” value (crabgrass, large; [8])?
The value was 100.

What about the “Plant response rating, Crabgrass, Large” value (crabgrass, large; 13 to 15 days) of the same compound?
The value was 100.

And the “Crabgrass, Large plant response rating” value (crabgrass, large; [9])?
The value was 100.

And the “Foxtail, Giant plant response rating” value (foxtail, giant; [7])?
Its value is 100.

And the “Foxtail, Giant plant response rating” value (foxtail, giant; [8])?
Its value is 100.

What about the “Plant response rating, Foxtail, Giant” value (foxtail, giant; 13 to 15 days) of the same compound?
The value was 100.

And the “Foxtail, Giant plant response rating” value (foxtail, giant; [9])?
Its value is 100.

What about the “Lambsquarters plant response rating” value (lambsquarters; [7]) of the same compound?
The value was 95.

What about the “Lambsquarters plant response rating” value (lambsquarters; [8]) of the same compound?
The value was 100.

What about the “Plant response rating, Lambsquarters” value (lambsquarters; 13 to 15 days) of the same compound?
The value was 100.

And the “Lambsquarters plant response rating” value (lambsquarters; [9])?
Its value is 98.

And the “Morningglory plant response rating” value (morningglory [1]; [7])?
Its value is 60.

And the “Morningglory plant response rating” value (morningglory [1]; [8])?
Its value is 100.

What about the “Plant response rating, Morningglory” value (morningglory [1]; 13 to 15 days) of the same compound?
The value was 98.

What about the “Morningglory plant response rating” value (morningglory [1]; [9]) of the same compound?
The value was 100.

And the “Pigweed plant response rating” value (pigweed; [7])?
The value was 100.

What about the “Pigweed plant response rating” value (pigweed; [8]) of the same compound?
The value was 100.

And the “Plant response rating, Pigweed” value (pigweed; 13 to 15 days)?
Its value is 100.

And the “Pigweed plant response rating” value (pigweed; [9])?
The value was 100.

And the “Waterhemp plant response rating” value (waterhemp [2]; [7])?
The value was 98.

What about the “Waterhemp plant response rating” value (waterhemp [2]; [8]) of the same compound?
The value was 100.

What about the “Plant response rating, Waterhemp” value (waterhemp [2]; 13 to 15 days) of the same compound?
Its value is 100.

What about the “Waterhemp plant response rating” value (waterhemp [2]; [9]) of the same compound?
The value was 100.

What about the “Velvetleaf plant response rating” value (velvetleaf; [7]) of the same compound?
Its value is 40.

And the “Velvetleaf plant response rating” value (velvetleaf; [8])?
The value was 100.

What about the “Plant response rating, Velvetleaf” value (velvetleaf; 13 to 15 days) of the same compound?
Its value is 100.

And the “Velvetleaf plant response rating” value (velvetleaf; [9])?
The value was 100.

What about the “Plant response rating (scale of 0 to 100 where 0 is no effect and 100 is complete control), Morningglory” value (morningglory [3]) of the same compound?
Its value is 30.

What about the “Morningglory plant response rating” value (morningglory [3]) of the same compound?
Its value is 50.

What about the “Plant response rating, Morningglory” value (morningglory [3]; [10]) of the same compound?
The value was 85.

What about the “Plant response rating, Morningglory” value (morningglory [3]; [11]) of the same compound?
Its value is 60.

What about the “Plant response rating (scale of 0 to 100 where 0 is no effect and 100 is complete control), Nutsedge, Yellow” value (nutsedge, yellow) of the same compound?
Its value is 5.

And the “Nutsedge, Yellow plant response rating” value (nutsedge, yellow)?
Its value is 10.

What about the “Plant response rating, Nutsedge, Yellow” value (nutsedge, yellow; [10]) of the same compound?
The value was 20.

What about the “Plant response rating, Nutsedge, Yellow” value (nutsedge, yellow; [11]) of the same compound?
The value was 45.

And the “Oilseed Rape plant response rating” value (oilseed rape)?
Its value is 45.

What about the “Plant response rating, Oilseed Rape” value (oilseed rape; [10]) of the same compound?
The value was 65.

And the “Plant response rating, Oilseed Rape” value (oilseed rape; [11])?
Its value is 55.

And the “Plant response rating, Waterhemp” value (waterhemp [4])?
Its value is 75.

Which results are given for `CCc1cc(C(=O)NC2CC2)nn1Cc1ccnc(OCC(F)(F)F)c1` [Compound 200]?
Wheat plant response rating (wheat; [5]): 40; Wheat plant response rating (wheat; [6]): 100; Plant response rating, Barnyardgrass (barnyardgrass): 25; Crabgrass, Large plant response rating (crabgrass, large; [7]): 100; Crabgrass, Large plant response rating (crabgrass, large; [8]): 100; Plant response rating, Crabgrass, Large (crabgrass, large; 13 to 15 days): 100; Crabgrass, Large plant response rating (crabgrass, large; [9]): 100; Foxtail, Giant plant response rating (foxtail, giant; [7]): 75; Foxtail, Giant plant response rating (foxtail, giant; [8]): 85; Plant response rating, Foxtail, Giant (foxtail, giant; 13 to 15 days): 98; Foxtail, Giant plant response rating (foxtail, giant; [9]): 100; Lambsquarters plant response rating (lambsquarters; [7]): 75; Lambsquarters plant response rating (lambsquarters; [8]): 100; Plant response rating, Lambsquarters (lambsquarters; 13 to 15 days): 100; Lambsquarters plant response rating (lambsquarters; [9]): 100; Morningglory plant response rating (morningglory [1]; [7]): 55; Morningglory plant response rating (morningglory [1]; [8]): 95; Plant response rating, Morningglory (morningglory [1]; 13 to 15 days): 98; Morningglory plant response rating (morningglory [1]; [9]): 100; Pigweed plant response rating (pigweed; [7]): 100; Pigweed plant response rating (pigweed; [8]): 100; Plant response rating, Pigweed (pigweed; 13 to 15 days): 100; Pigweed plant response rating (pigweed; [9]): 100; Waterhemp plant response rating (waterhemp [2]; [7]): 100; Waterhemp plant response rating (waterhemp [2]; [8]): 100; Plant response rating, Waterhemp (waterhemp [2]; 13 to 15 days): 100; Waterhemp plant response rating (waterhemp [2]; [9]): 100; Velvetleaf plant response rating (velvetleaf; [7]): 40; Velvetleaf plant response rating (velvetleaf; [8]): 70; Plant response rating, Velvetleaf (velvetleaf; 13 to 15 days): 100; Velvetleaf plant response rating (velvetleaf; [9]): 100; Plant response rating (scale of 0 to 100 where 0 is no effect and 100 is complete control), Morningglory (morningglory [3]): 65; Morningglory plant response rating (morningglory [3]): 65; Plant response rating, Morningglory (morningglory [3]; [10]): 75; Plant response rating, Morningglory (morningglory [3]; [11]): 75; Plant response rating (scale of 0 to 100 where 0 is no effect and 100 is complete control), Nutsedge, Yellow (nutsedge, yellow): 0; Nutsedge, Yellow plant response rating (nutsedge, yellow): 0; Plant response rating, Nutsedge, Yellow (nutsedge, yellow; [10]): 10; Plant response rating, Nutsedge, Yellow (nutsedge, yellow; [11]): 5; Oilseed Rape plant response rating (oilseed rape): 30; Plant response rating, Oilseed Rape (oilseed rape; [10]): 60; Plant response rating, Oilseed Rape (oilseed rape; [11]): 60; Plant response rating, Waterhemp (waterhemp [4]): 85
